Experimental data from patent US11673910B2, “Macrolides with modified desosamine sugars and uses thereof” (Zikani Therapeutics, Inc., priority 2017, dated 2023).
In brackets after ≈: the same amount, converted by molar mass.

Experiments:
Type in all cases: cell-based
[1] = tested on: K. pneumoniae strain MP-548; test: Broth dilution MIC determination (CLSI) against K. pneumoniae strain MP-548; details: Klebsiella pneumoniae, MP548
Method: (§1) Minimum inhibitory concentrations (MICs) for macrolides described herein were determined for E. coli strain MP-4, K. pneumoniae strain MP-548, P. aeruginosa strain MP-3, A. baumannii strain MP-15, and S. aureus strain MP-12 using similar test procedures as published in US Pat. Pub. No. 2017/0305953. MIC data is represented as “+++” for values less than or equal to 4 mg/L, “++” for values of greater than or equal to 8 mg/L and less than 32 mg/L, and “+” for values of 32 mg/L or greater. ND indicates no data for a particular compound. CLSI standard procedures for broth dilution MIC determination were used.

[2] = tested on: P. aeruginosa strain MP-3; test: Broth dilution MIC determination (CLSI) against P. aeruginosa strain MP-3; details: Pseudomonas aeruginosa, MP3
Method: as §1

S. aureus strain MP-12 = test: Broth dilution MIC determination (CLSI) against S. aureus strain MP-12; details: Staphylococcus aureus, MP12, strain MP-12
Method: as §1

E. coli strain MP-4 = test: Broth dilution MIC determination (CLSI) against E. coli strain MP-4; details: Escherichia coli, MP4
Method: as §1

[3] = tested on: A. baumannii strain MP-15; test: Broth dilution MIC determination (CLSI) against A. baumannii strain MP-15; details: Acinetobacter baumannii, MP15
Method: as §1

SMILES | MIC [1] [µg/mL] | MIC [2] [µg/mL] | MIC (S. aureus strain MP-12) [µg/mL] | MIC (E. coli strain MP-4) [µg/mL] | MIC [3] [µg/mL]
CC[C@H]1OC(=O)C(C)C(=O)[C@H](C)[C@@H](OC2OC(CN(C)CC3CC3)CC(N(C)C)C2O)[C@](C)(OC)C[C@@H](C)CN[C@H](C)[C@H]2NC(=O)O[C@@]21C (some centres unmarked) [Compound 153, 3-Descladinosyl-3-oxo-6-O-methyl-N9a-desmethyl-11,12-dideoxy-12,11-(oxycarbonylimino)-6′-methylcyclopropylmethylamino Azithromycin] | ≥ 32 | ≥ 32 | ≥ 32 | ≤ 4 | ≥ 32
CC[C@H]1OC(=O)[C@@]2(C)CCO[C@](C)(C[C@@H](C)CN[C@H](C)[C@H]3NC(=O)O[C@@]31C)[C@H](O[C@@H]1O[C@H](CNCc3cccnc3)C[C@H](N(C)C)[C@H]1O)[C@@H](C)C2=O [Compound 201] | ≥ 32 | ≥ 32 | ≥ 32 | ≥ 32 | ≥ 32
CC[C@H]1OC(=O)C(C)C(=O)[C@H](C)[C@@H](O[C@@H]2OC(CN(C)Cc3ccc(F)cc3)CC(N(C)C)C2O)[C@](C)(OC)C[C@@H](C)CN[C@H](C)[C@H]2NC(=O)O[C@@]21C (some centres unmarked) [Compound 34] | ≥ 32 | ≥ 32 | ≥ 32 | 8 to 32 (≈ 10.7 to 42.6 µM) | ≥ 32
CC[C@H]1OC(=O)C(C)C(=O)[C@H](C)[C@@H](O[C@@H]2OC(CNCC3COC3)CC(N(C)C)C2O)[C@](C)(OC)C[C@@H](C)CN[C@H](C)[C@H]2NC(=O)O[C@@]21C (some centres unmarked) [Compound 56] | ≥ 32 | ≥ 32 | ≥ 32 | 8 to 32 (≈ 11.4 to 45.8 µM) | ≥ 32
CO[C@]1(C)C[C@@H](C)CN[C@H](C)[C@H]2NC(=O)O[C@]2(C)[C@@H](C)OC(=O)C(C)C(=O)[C@H](C)[C@H]1OC1OC(CNC2CC2)CC(N(C)C)C1O (some centres unmarked) [Compound 146, 3-Descladinosyl-3-oxo-6-O-methyl-N9a-desmethyl-11,12-dideoxy-12,11-(oxycarbonylimino)-6′-cyclopropylamino-13-methyl Azithromycin] | ≥ 32 | ≥ 32 | ≥ 32 | ≥ 32 | ≥ 32
CC[C@H]1OC(=O)C(C)C(=O)[C@H](C)[C@@H](OC2OC(CN3CC(F)(F)C3)CC(N(C)C)C2O)[C@](C)(OC)C[C@@H](C)CN[C@H](C)[C@H]2NC(=O)O[C@@]21C (some centres unmarked) [Compound 139, 3-Descladinosyl-3-oxo-6-O-methyl-N9a-desmethyl-11,12-dideoxy-12,11-(oxycarbonylimino)-6′-(3″,3″-difluoroazetidinyl) Azithromycin] | 8 to 32 (≈ 11.3 to 45.4 µM) | ≥ 32 | 8 to 32 (≈ 11.3 to 45.4 µM) | ≤ 4 | 8 to 32 (≈ 11.3 to 45.4 µM)
CC[C@H]1OC(=O)C(C)C(=O)[C@H](C)[C@@H](O[C@@H]2OC(CNc3cccc(F)c3)CC(N(C)C)C2O)[C@](C)(OC)C[C@@H](C)CN[C@H](C)[C@H]2NC(=O)O[C@@]21C (some centres unmarked) [Compound 48] | ≥ 32 | ≥ 32 | 8 to 32 (≈ 11.1 to 44.3 µM) | 8 to 32 (≈ 11.1 to 44.3 µM) | ≥ 32
CC[C@H]1OC(=O)C(C)C(=O)[C@H](C)[C@@H](OC2OC(CNCCF)CC(N(C)C)C2O)[C@](C)(OC)C[C@@H](C)CN[C@H](C)[C@H]2NC(=O)O[C@@]21C (some centres unmarked) [Compound 111, 3-Descladinosyl-3-oxo-6-O-methyl-N9a-desmethyl-11,12-dideoxy-12,11-(oxycarbonylimino)-6′-(2-fluoroethylamino) Azithromycin] | ≤ 4 | ≥ 32 | ≥ 32 | ≤ 4 | ≥ 32
CC[C@H]1OC(=O)[C@@](C)(F)C(=O)[C@H](C)[C@@H](O[C@@H]2OC(CNCc3cccc(-c4cncnc4)c3)CC(N(C)C)C2O)[C@](C)(OC)C[C@@H](C)C(=O)[C@H](C)[C@H]2NC(=O)O[C@@]21C (some centres unmarked) [Compound 93] | ≥ 32 | ≥ 32 | ≤ 4 | ≥ 32 | ≥ 32
CO[C@]1(C)C[C@@H](C)CN[C@H](C)[C@H]2NC(=O)O[C@]2(C)[C@@H](C)OC(=O)C(C)C(=O)[C@H](C)[C@H]1OC1OC(CNCC2CC2)CC(N(C)C)C1O (some centres unmarked) [Compound 148, 3-Descladinosyl-3-oxo-6-O-methyl-N9a-desmethyl-11,12-dideoxy-12,11-(oxycarbonylimino)-6′-cyclopropylmethylamino-13-methyl Azithromycin] | ≥ 32 | ≥ 32 | ≥ 32 | ≥ 32 | ≥ 32
